# Tests used:
# human CD8^+ T cells = assay: Markers of T cell differentiation and exhaustion by flow cytometry; format: cell-based
# Description: Single-cell suspensions were stained with LIVE/DEAD Fixable Near-IR Dead Cell Stain Kit (catalogue no. 10119, Thermo Fisher Scientific) followed by surface and intracellular staining with fluorochrome-labelled antibodies (Supplementary Tables 1 and 2). Staining of cytoplasmic and nuclear antigens was performed using the Cytofix/Cytoperm Fixation/Permeabilization Kit (catalogue no. 554714, BD Biosciences) and the Transcription Factor Buffer Set (catalogue no. 562725, BD Biosciences), respectively. For the proliferation assays, cells were loaded with CellTrace Violet (catalogue no. C34557, Thermo Fisher Scientific) according to the manufacturer’s instructions. Samples were acquired on an Aurora (Cytek Biosciences).
# B16F10-OVA cancer cells = assay: In vitro cytotoxicity of OT1 CD8^+ T cells; format: cell-based, mouse; details: T cells cultured 7 days with 500 µM DEG
# Description: Ten thousand B16F10-OVA or SKOV3 cells were seeded per well in 96-well plates and cocultured for a minimum of 14 h with varying ratios of mouse CD8^+ OT1 or human CD8^+RQR8^+ HER2 CAR T cells, respectively. T cells had been treated with or without DEG 7 days before the assay. Wells were washed twice with PBS to remove T cells and the number of remaining target cells was determined by culturing with 10 µg ml^−1 resazurin (catalogue no. R7017, Sigma-Aldrich) and measuring the fluorescence signal in a plate reader. Cytotoxicity was calculated relative to wells with no T cells added. Ten thousand Raji cells were cocultured for a minimum of 14 h with CD19 CAR T cells previously activated for 7 days and cultured with or without DEG. Cytotoxicity was assessed by flow cytometry using the ratio of live Raji cells to CountBright Absolute Counting Beads (catalogue no. C36950, Thermo Fisher Scientific). To determine specific cytotoxicity, data were normalized to the cytotoxicity of the vector-controlled transduced CD8 T cells of the respective donor.
# [1] = tested on: protein glutarylation in human CD8^+ T cells; assay: Pan-lysine glutarylation western blot; format: cell-based
# Description: We determined this first by undertaking whole-protein lysate western blot analyses with a pan-lysine glutarylation (K-glutarylation) antibody[36],[38]. […] Glutarylation patterns were also altered when cells were exposed to different oxygen tensions (Fig. 3c and Extended Data Fig. 3a) and when treated with DEG (Fig. 3d and Extended Data Fig. 3b). […] Since, as shown in Extended Data Fig. 1g, DEG is converted within 15 min to glutarate intracellularly, it is likely that the DEG-induced glutarylation observed after 30 min of DEG treatment is a direct result of increases in intracellular glutarate.
# Cell pellets were lysed by either urea-Tris buffer (8 M urea, 50 mM Tris-HCl (pH 7.5), 150 mM β-mercaptoethanol), sonicated twice for 45 s intercalated with 1 min incubation on ice and centrifuged at 14,000g, 4 °C for 15 min or by RIPA Lysis and Extraction Buffer (catalogue no. 89900, Thermo Fisher Scientific), according to the manufacturer’s instructions. Nuclear and cytosolic fractions were prepared from cells using the NE-PER kit (catalogue no. 78833, Thermo Fisher Scientific). Histones were extracted with the Histone Extraction Kit (catalogue no. ab113476, Abcam). Proteins were separated by SDS–PAGE and transferred to polyvinylidene fluoride (PVDF) membranes. Total protein stain was obtained using non-stain protein labelling reagent (catalogue no. A44448, Thermo Fisher Scientific). […]
# human CD19^+ CAR T cells = assay: Growth of human CD19 CAR T cells; format: cell-based; details: 500 µM, 7 days
# CD8^+ T cells = assay: Acetyl-CoA measurement; format: cell-based, human; details: 500 µM DEG, 30 min or 7 days
# Description: Acetyl-CoA levels were determined using an acetyl-CoA assay kit (catalogue no. MAK039, Sigma-Aldrich). After culture, 2 × 10^6 cells per condition were collected, washed twice with ice-cold PBS and resuspended in 500 µl of the assay buffer. Following deproteinization by adding 2 µl 1M perchloric acid, samples were sonicated and the assay was performed according to the manufacturer’s instructions. Data were acquired on the FLUOstar Omega.
# [2] = 10 days of DEG treatment, 500 µM
structure (smiles),measurement,setting,value
"CCOC(=O)CCCC(=O)OCC [DEG, Diethyl glutarate]",expression of LAG3,human CD8^+ T cells; [2],downregulated
same,expression of TIM3,human CD8^+ T cells; [2],downregulated
same,expression of TOX,human CD8^+ T cells; [2],downregulated
same,expression of granzyme B (GZMB),"human CD8^+ T cells; DEG 500 µM, 7-10 days",increases
same,killing of B16F10-OVA cancer cells by OT1 CD8^+ T cells,B16F10-OVA cancer cells,more proficient at killing
same,time of culture with DEG after which shifts in glutarylation could be detected,[1]; 500 µM DEG,30 min
same,glutarylation patterns,"[1]; increasing concentrations of DEG, 7 days",altered
same,growth of human CD19^+ CAR T cells,human CD19^+ CAR T cells,did not affect the growth
same,acetyl-CoA levels,CD8^+ T cells,not lower
